Assay results taken from patent US6107271A, “Neuroactive peptides” (NYXIS Neuro Therapies, Inc., priority 1998, dated 2000).
Like-named read-outs stand apart in the source and are kept apart here. Positions of bridges follow the written chain, without caps; N, C: chain ends. Residues, ends and D or L forms follow the SMILES beside them. No end group written: not given here.

Experiments:
[1] = biological target: T1, NMDA receptor complex, glycine co-agonist site (Rattus norvegicus, UniProt P35439); type: biochemical; conditions: rat hippocampus membranes, in the presence of 7-chlorokynurenic acid, ± S.E.M.
T1 construct: Crude synaptic membranes used in the assay were prepared using rat hippocampal tissue; from tissue; host or cells: rat hippocampus, crude synaptic membranes
Experimental: Polypeptides or amino acid compositions of the instant invention were tested for the ability to mimic the glycine co-agonist effect on the NMDA receptor using a previously validated [^3 H]MK-801 binding assay. This functional assay takes advantage of the fact that increased [^3 H]MK-801 binding by NMDA receptors can only occur upon receptor-binding channel opening. This is because the MK-801 binding site is located inside the ionophore of the NMDA receptor complex, and is thus only accessible upon the opening of the receptor complex channel. Thus increased binding of [^3 H]MK-801 is directly correlated with increased channel opening, in this assay, triggered by the binding of the polypeptides or amino acid compositions of the instant invention to the glycine co-agonist binding site.
To further refine the assay, a selective antagonist of the glycine binding site of the NMDA receptor-channel complex is added to the assay. The normal action of 7-chlorokynurenic acid is to selectively bind to the glycine site, and inhibit NMDA receptor channel opening, and thus inhibit the binding of [^3 H]MK-801 to the NMDA receptor complex.
Crude synaptic membranes used in the assay were prepared using rat hippocampal tissue (male Sprague-Dawly rats) and extensively washed using the procedures described previously (Haring et al., 1991, J. Neurochem. 57:323-331). Briefly, tissue which has been stored at -80-- C is homogenized in ice cold 5 mM Tris (pH 7.4) using a Brinkman Polytron® and then pelleted by centrifugation at 48,000 g for 20 minutes. The resulting supernatant is discarded, and the membranes washed three times in cold buffer. Pellets are then resuspended in 5 mM EDTA, 15 mM Tris (pH 7.4), and incubated for one hour at 37-- C. The membrane suspensions are then pelleted by centrifugation at 48,000g for 20 min and stored at -80-- C until use in the assay.
Frozen pellets are thawed at room temperature and washed three times by resuspension in 5 mM Tris (pH 7.4) and centrifugation. Final pellets are suspended at concentrations of 2 to 3 mg/ml in 5 mM Tris buffer (pH 7.4). Binding reactions are initiated by the addition of 200-- g of freshly prepared membranes to reaction mixtures (about 1 ml final volume) containing 1 nM [^3 H]MK-801 at 25-- C in the presence of a range of peptide concentrations and 60-- M 7-chlorokynurenic acid. Non-specific binding is determined using 10-- M unlabelled MK-801. Binding reactions are terminated by filtration through a Brandel 24-well cell harvester onto Whatman GF/B glass filters that have been presoaked in 0.25% polyethyleneimine for 30 minutes.

[2] = biological target: T2, mouse NMDA receptor subunits z1 and e1 expressed in oocytes (Mus musculus, UniProt P35438); assay: Electrophysiological NMDA specific activity assay, two-electrode voltage clamp in oocytes; type: cell-based
T2 construct: expressed in transfected cells
Experimental: Electrophysiological recordings are made with two-electrode voltage-clamp techniques, and standard oocyte expression system preparations (see Leonard and Kelso, 1990, Neuron 4:53-60; Kelso et al., 1992, J. Physiology 449:705-718). Oocytes are isolated and injected with mRNA for mouse NMDA receptor subunits: 70 nl of z1 (-- 1) RNA is co-injected with an equal volume of e1 (-- 1) RNA. After incubation for two days, recordings are made while clamping membrane potential at -80 mV. The standard recording solution contains 95 mM NaCl, 2 mM KCl, 3.8 mM BaCl2, and 5 mM HEPES. Mg^2+ is omitted because it blocks NMDA currents at some potentials; Ca^2+ is omitted because it can trigger the oocyte's endogenous Ca^2+ -dependent chloride current. Responses are evoked by the continuous perfusion of 3-5 ml of NMDA containing solutions. The recording chamber has a volume of about […].

[3] = biological target: T1, NMDA receptor complex, glycine co-agonist site; type: biochemical; conditions: in the presence of 10 μM L-glutamate, ± S.E.M.
[4] = test system: rabbits; conditions: peripheral injections; cited from earlier work

Molecule | [3H]MK-801 binding, percentage of control binding ([1]; 10^-5 M peptide) [%] | [3H]MK-801 binding, percentage of control binding ([1]; 10^-6 M peptide) [%] | [3H]MK-801 binding, percentage of control binding ([1]; 10^-7 M peptide) [%] | [3H]MK-801 binding, percentage of control binding ([1]; 10^-8 M peptide) [%] | [3H]MK-801 binding, percentage of control binding ([1]; 10^-9 M peptide) [%] | NMDA current (FIG. 3B) ([2]; 100-- M NMDA with 10-- M glycine, -80 mV) | [3H]MK-801 binding, percentage of control binding ([3]; 10^-5 M peptide) [%] | [3H]MK-801 binding, percentage of control binding ([3]; 10^-6 M peptide) [%] | [3H]MK-801 binding, percentage of control binding ([3]; 10^-7 M peptide) [%] | [3H]MK-801 binding, percentage of control binding ([3]; 10^-8 M peptide) [%] | learning rates in trace eyeblink conditioning [4] | NMDA current (FIG. 3B) ([2]; NMDA alone, same cell)
EDLAVYYSQQHYSTPPT [NT-5] | 112 ± 4 | 106 ± 2 | 114 ± 2 | 100 ± 9 | 109 ± 8 | – | – | – | – | – | – | –
C[C@@H](O)[C@H](N)C(=O)N1CCC[C@H]1C(=O)N1CCC[C@H]1C(=O)N[C@H](C(=O)O)[C@@H](C)O [NT-13, Thr-Pro-Pro-Thr] (H-TPPT-OH) | 117 ± 7 | 129 ± 10 | 110 ± 10 | 103 ± 8 | 97 ± 8 | – | – | – | – | – | – | –
NCC(=O)O [glycine] | – | – | – | – | – | about 284 nA | – | – | – | – | – | –
QQHYSTPPTFGGGTKLE [NT-9] | 120 ± 3 | 112 ± 10 | 125 ± 5 | 126 ± 7 | 104 ± 12 | – | – | – | – | – | – | –
FTISSVQAELDLAVYYSQQHYSTPPT [NT-7] | 100 ± 3 | 104 ± 0 | 97 ± 1 | 103 ± 4 | 96 ± 4 | – | – | – | – | – | – | –
C[C@@H](O)[C@H](N)C(=O)N1CCC[C@H]1C(=O)N1CCC[C@H]1C(=O)O [NT-14, Thr-Pro-Pro] (H-Thr-Pro-Pro-OH) | 95 ± 4 | 98 ± 8 | 96 ± 5 | 101 ± 1 | 89 ± 6 | – | – | – | – | – | – | –
KASQDVSTTVA [NT-1] | – | – | – | – | – | – | 73 ± 6 | 100 ± 2 | 97 ± 2 | – | – | –
C[C@@H](O)[C@H](NC(=O)[C@@H]1CCCN1C(=O)[C@@H]1CCCN1)C(=O)O [NT-15, Pro-Pro-Thr] (H-Pro-Pro-Thr-OH) | 93 ± 1 | 108 ± 12 | 100 ± 7 | 103 ± 2 | 99 ± 21 | – | – | – | – | – | – | –
C[C@@H](O)[C@@H]1NC(=O)[C@@H]2CCCN2C(=O)[C@@H]2CCCN2C(=O)[C@H]([C@@H](C)O)NC(=O)[C@H](CO)NC(=O)[C@H](Cc2ccc(O)cc2)NC(=O)[C@H](Cc2c[nH]cn2)NC(=O)[C@H](CCC(N)=O)NC(=O)[C@H](CCC(N)=O)NC(=O)[C@@H](N)CSSC[C@@H](C(=O)O)NC1=O [NT-10] (H-CQQHYSTPPTC-OH; disulfide 1-11) | 116 ± 12 | 128 ± 4 | 114 ± 3 | 90 ± 8 | 100 ± 2 | – | – | – | – | – | – | –
SASYRYT [NT-2, Ser-Ala-Ser-Tyr-Arg-Tyr-Thr] | – | – | – | – | – | – | 77 ± 12 | 106 ± 4 | 109 ± 15 | 80 ± 9 | – | –
QQHYSTPPT [NT-3] | 90 ± 1 | 111 ± 11 | 121 ± 4 | 123 ± 0 | 112 ± 20 | – | – | – | – | – | – | –
N[C@@H]1CONC1=O [D-cycloserine] | – | – | – | – | – | – | – | – | – | – | doubled | –
O=C(O)[C@@H]1CCCN1C(=O)[C@@H]1CCCN1 [NT-16, Pro-Pro] (H-Pro-Pro-OH) | 117 ± 12 | 103 ± 3 | 97 ± 6 | 89 ± 8 | 83 ± 9 | – | – | – | – | – | – | –
SQQHYSTPPTS [NT-11] | 127 ± 21 | 120 ± 11 | 118 ± 4 | 111 ± 4 | 96 ± 23 | – | – | – | – | – | – | –
QQHYSTPPTFGGG [NT-8] | 115 ± 6 | 107 ± 6 | 108 ± 4 | 110 ± 5 | 105 ± 7 | – | – | – | – | – | – | –
SVQAELDLAVYYSQQHYSTPPT [NT-6] | 91 ± 7 | 96 ± 1 | 101 ± 15 | 101 ± 9 | 95 ± 6 | – | – | – | – | – | – | –
C[C@@H](O)[C@H](N)C(=O)N1CCC[C@H]1C(=O)N[C@H](C(=O)O)[C@@H](C)O [NT-17, Thr-Pro-Thr] (H-Thr-Pro-Thr-OH) | 119 ± 21 | 117 ± 14 | 128 ± 9 | 125 ± 17 | 122 ± 23 | – | – | – | – | – | – | –
CN[C@H](CC(=O)O)C(=O)O [NMDA, N-methyl-D-aspartate] | – | – | – | – | – | – | – | – | – | – | – | about 7 nA
VYYSQQHYSTPPT [NT-4] | 109 ± 10 | 110 ± 1 | 116 ± 2 | 106 ± 6 | 106 ± 2 | – | – | – | – | – | – | –
QQHYS [NT-12, Gln-Gln-His-Tyr-Ser] | 106 ± 2 | 106 ± 9 | 95 ± 7 | 104 ± 10 | 95 ± 21 | – | – | – | – | – | – | –
